Measurements taken from paper PMC11586411 (Translational Psychiatry, 2023).

Target: T1, kappa-opioid receptor (KOP) (Homo sapiens, UniProt P41145)
T1 construct: gene OPRK1
Test: FLIM in live cells: blocks the dynorphin A-induced change of KOP-eGFP lifetime
Type: cell-based

T1 sequence (P41145 whole entry): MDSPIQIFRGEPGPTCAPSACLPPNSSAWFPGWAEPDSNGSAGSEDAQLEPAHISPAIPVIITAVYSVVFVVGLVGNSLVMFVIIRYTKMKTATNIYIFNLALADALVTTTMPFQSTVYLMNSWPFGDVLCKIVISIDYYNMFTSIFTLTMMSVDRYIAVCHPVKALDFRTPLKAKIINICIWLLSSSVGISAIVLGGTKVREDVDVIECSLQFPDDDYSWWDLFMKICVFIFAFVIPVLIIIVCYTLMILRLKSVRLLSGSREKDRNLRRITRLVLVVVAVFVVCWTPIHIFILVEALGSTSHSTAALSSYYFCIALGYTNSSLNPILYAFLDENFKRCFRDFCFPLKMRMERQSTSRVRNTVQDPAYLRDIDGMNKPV

## CC(C)[C@@H](CN1CC[C@@](C)(c2cccc(O)c2)[C@@H](C)C1)NC(=O)[C@H]1Cc2ccc(O)cc2CN1 [JDTic]
  FLIM in live cells: blocks the dynorphin A-induced change of KOP-eGFP lifetime: both NTX and the KOP-selective antagonist JDTic blocked this effect, suggesting that DynA binds to KOP-eGFP
